Measurements published in PubChem BioAssay (NCI).
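The compound was tested at five concentrations on cells cultured in 96-well plates, with a 48-hour exposure period. GI50 = concentration required for 50% inhibition of growth. At the TGI there is no net growth.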

Test system: MDA-MB-468 breast
Test: NCI tumour cell line growth inhibition, 48 h

Row | Compound | GI50 | TGI
1 | C#C[C@]1(O)CC[C@H]2[C@@H]3CC=C4c5sc(Nc6ccc(Cl)cn6)nc5CC[C@]4(C)[C@H]3CC[C@@]21C | 7650 nM | > 100000 nM
2 | C[C@@]1(F)[C@H](O)[C@@H](CO)O[C@H]1n1ccc(=O)[nH]c1=O | > 100000 nM | > 100000 nM
3 | NC(N)=N/N=C\c1ccc(OCc2ccccc2)cc1 | 1230 nM | 2640 nM
4 | COc1ccc(-n2c(=S)sc3c(Cl)nc(C)nc32)c(OC)c1 | 1980 nM | 6570 nM
5 | CCCCCCCC(=O)OCC/C=C/C1OC1C1OC(=O)/C=C\C=C\C(=O)N(C(C)=O)C(=O)/C=C(/C)CCC2OC2C1OC(=O)NC(C)=O (configuration not stated) | 1210 nM | 5600 nM
6 | O=C1C(=O)c2c(nc3ccc(C(F)(F)F)cn23)-c2ccccc21 | 234 nM | 560 nM
7 | CC(C)(C)C[C@H]1N[C@@H](C(=O)NC2CCC(O)CC2)[C@H](c2cccc(Cl)c2F)[C@@]12C(=O)Nc1cc(Cl)ccc12 (some centres not stated) | 3540 nM | 18500 nM
8 | COC1=CC(c2ccc[nH]2)=N/C1=C\c1[nH]c(C)c(C(=O)CCCCCCCCC(=O)O[C@H]2CC[C@H]3C4CCc5cc(O)ccc5C4CC[C@]23C)c1C (some centres not stated) | 560 nM | > 50000 nM
9 | O=C1c2cc3c(cc2-c2c1c1cc(F)c(F)cc1c(=O)n2CCCn1ccnc1)OCO3 | 20.5 nM | 90.7 nM
10 | CCN(CC)C(=S)SSC(C)C | 17300 nM | 45800 nM
11 | C[C@@H]1C[C@@H]([C@H](O)CC2CC(=O)NC(=O)C2)C(=O)[C@@H](C)C1 | 250 nM | 4050 nM
12 | C/C(=N/NC(=S)Nc1ccccc1)c1nc2ccc(Cl)cc2[nH]1 | 181 nM | 776 nM
13 | Cn1c(I)c(C#C[Si](C)(C)C)c(=O)n(C(=O)c2ccccc2)c1=O | 1190 nM | 2870 nM
14 | CCOC(=O)Nc1ccc2nc(-c3cscn3)[nH]c2c1 | 2440 nM | > 100000 nM
15 | O=C(Nc1n[nH]c2cc(-c3cc(F)ccc3F)ccc12)C1CC1 | 6060 nM | > 25000 nM
16 | CN(C)CCC(=O)Nc1ccc(-n2cc(-c3cccc(NC(=S)Nc4cccc(-c5cn(-c6ccc(NC(=O)CCN(C)C)cc6)nn5)c4)c3)nn2)cc1 | 4740 nM | 22700 nM
17 | CCCCNC(c1ccc(Cl)cc1)C(O)c1ccc(Cl)cc1 (configuration not stated) | 1690 nM | 3300 nM
18 | COc1cc(/C=N/NC(=O)c2cnn3c2NC(c2ccccc2)C3)ccc1OC1CCCC1 (configuration not stated) | 524 nM | 5710 nM

Row | Compound | GI50 | TGI
19 | C/C(=C(/c1ccc(O)cc1)c1ccc(OCCN(C)C)cc1)c1ccc(Cl)cc1 | 13400 nM | 31900 nM
20 | Nc1cc2c3c(cccc3c1)C(=O)N(CCN1CCCC1)C2=O | 4480 nM | 21100 nM
21 | OCc1ccc(N(Cc2ccc(F)cc2)Cc2ccc(F)cc2)cc1Cl | 341 nM | 1700 nM
22 | Cc1ccccc1NC(=O)Nc1nc2ccc([N+](=O)[O-])cc2s1 | 2410 nM | 5370 nM
23 | O=c1[nH]c(C2CCCN2)nc2c1oc1ccc(Cl)cc12 (configuration not stated) | > 67400 nM | > 100000 nM
24 | O=C1C=CC(=O)c2c(O)c(N3CCN(CCO)CC3)c(Cl)c(O)c21 | 286 nM | 1000 nM
25 | COc1ccc2[nH]c(C(=O)N3CCN(C(=O)OCc4ccc5c(Cl)cc(Cl)c(O)c5n4)CC3)cc2c1 | 1260 nM | 2780 nM
26 | Cc1cccc(N2C(=O)/C(=C/C(Cl)=C/c3ccc([N+](=O)[O-])cc3)SC2=S)c1C | 1690 nM | 4250 nM
27 | O=C(NCc1ncc[nH]1)c1ccc(-c2nc3ccc4[nH]ncc4c3c3c2CCCC3)cc1 | 640 nM | 1850 nM
28 | Cn1c(COC(=O)NCCn2ccnc2)nc2c(N3CCOCC3)nc(-c3ccccc3)nc21 | 360 nM | 1460 nM
29 | COc1ccc(-c2ccc(OC)c(OC)c2OC)cc1 | 377 nM | 4370 nM
30 | COc1cc(C2CC(c3ccc(Nc4nc(NCCO)nc(NCCO)n4)cc3)=NN2c2cc(Cl)cc(Cl)c2)cc(OC)c1OC (configuration not stated) | 1680 nM | 4480 nM
31 | COc1cc(N2C(=O)[C@H](Cl)C2c2ccc(SC)cc2)cc(OC)c1OC (some centres not stated) | 274 nM | > 100000 nM
32 | CCCCCCCC/C=C/CCCCCCCC1=NC(C)(C)CN1C(C)(C)CO | 1730 nM | 3230 nM
33 | O=C1NC(=NCCc2ccc(Cl)cc2)S/C1=C\c1ccc2ncccc2c1 | 7500 nM | > 25000 nM
34 | CC1=NN(c2cccc(Cl)c2)C(=O)/C1=C\c1cn(CC(O)CN2CCCCC2)c2ccccc12 (configuration not stated) | 10400 nM | 25500 nM
35 | Cn1c(COC(=O)NCCc2ccccn2)nc2c(N3CCOCC3)nc(Cl)nc21 | 1560 nM | 3770 nM
36 | COc1ccc2c(c1)C(=O)c1c-2c(OCCCN(C)C)nc2cc(Br)ccc12 | 4680 nM | 18000 nM
